The record followed here is patent EP1803452A1, “ESTER DERIVATIVE AND PHARMACEUTICAL USE THEREOF” (Japan Tobacco, Inc., priority 2004, dated 2006).

Data set [1] in a line: Metabolic stability test in liver S9. To be noted: pH 7.4, human liver S9 2 mg protein/mL, LC/MS; for remaining at 10 min: unchanged form after 10 minutes at 37°C, read-out: Remaining rate in human liver S9 (%/10min); for remaining at 1 h: unchanged form after 60 minutes at 37°C, read-out: Remaining rate in human liver S9 (%/60min). It is filed as in vitro ADME. A digest of the protocol: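 Compound from DMSO solution was incubated at 37°C with human liver S9 (final 2 mg protein/mL) in 100 mM potassium phosphate pH 7.4 with an NADPH-regenerating system for 0, 10 and 60 minutes. Reactions were stopped with acetonitrile/0.1% formic acid. Unchanged compound was measured by LC/MS as remaining rate (%) relative to zero time.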

The nature of data set [2]: Metabolic stability test in plasma. In kind it is in vitro ADME, human. To be noted: LC/MS; for remaining at 10 min: unchanged form after 10 minutes at 37°C in human plasma, read-out: Remaining rate in human plasma (%/10min); for remaining at 1 h: unchanged form after 60 minutes at 37°C in human plasma, read-out: Remaining rate in human plasma (%/60min). A digest of the protocol:
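Compound in DMSO spiked into human, mouse or hamster plasma, incubated at 37°C for 0, 10 and 60 minutes, then quenched with acetonitrile/formic acid (final 0.1%). Unchanged compound in supernatant quantified by LC/MS; remaining rate (%) relative to time zero.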

A short description of data set [3]: Stability test in buffer (pH 7.4). In kind it is physicochemical. Conditions: phosphate buffer/acetonitrile 7:3, 100 mM potassium phosphate buffer (pH 7.4) and acetonitrile 7:3 (v/v), LC/MS; for remaining at 10 min: 10 minutes at 37°C, read-out: Buf. remaining rate (%/10min); for remaining at 1 h: 60 minutes at 37°C, read-out: Buf. remaining rate (%/60min). A digest of the protocol:
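Compound from DMSO solution incubated at 37°C in 100 mM potassium phosphate buffer/acetonitrile 7:3 (v/v) for 0, 10 and 60 min, then quenched with acetonitrile containing formic acid (final 0.1%). Unchanged compound in supernatant quantified by LC/MS; remaining rate (%) = amount at each time / amount at zero time × 100.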

`CCOC(=O)c1cc(OC)c(OC(=O)CCCc2ccc(NC(=O)c3ccc(C)nc3-c3ccc(C(F)(F)F)cc3)c(C(=O)N(C)C)c2)c(OC)c1` [Compound 1-43, 4-[4-(3-dimethylcarbamoyl-4-{[6-methyl-2-(4-trifluoromethylphenyl)pyridine-3-carbonyl]amino}phenyl)butyryloxy]-3,5-dimethoxybenzoic acid ethyl ester]: the values for the remaining at 10 min in data set [1], in data set [2] and in data set [3] were 4%, 13% and 101%, respectively. In addition, the remaining at 1 h in data set [1] was 2%; in data set [2] it was 0%; in data set [3] it was 103%.
With `COC(=O)c1ccc(OC(=O)C2CCN(c3ccc(NC(=O)c4ccccc4-c4ccc(C(F)(F)F)cc4)c(C(=O)N(C)C)c3)CC2)cc1` [Compound 3-1, 1-(3-dimethylcarbamoyl-4-[(4'-trifluoromethylbiphenyl-2-carbonyl)amino]phenyl}piperidine-4-carboxylic acid 4-methoxycarbonylphenyl ester], the remaining at 10 min came to 2% in data set [1], 63% in data set [2] and 98% in data set [3]. In addition, the values for the remaining at 1 h in data set [1], in data set [2] and in data set [3] were 0%, 6% and 102%, respectively.
Regarding `CN(C)C(=O)c1cc(CCCC(=O)Oc2ccc(C#N)cc2)ccc1NC(=O)c1ccccc1-c1ccc(C(F)(F)F)cc1` [Compound 1-23, 4-{3-dimethylcarbamoyl-4-[(4'-trifluoromethylbiphenyl-2-carbonyl)amino]phenyl}butyric acid 4-cyanophenyl ester], the remaining at 10 min in data set [1] was determined as 0%; in data set [2], 21%; in data set [3] it was 99%. For the same compound, the figures for the remaining at 1 h in data set [1], in data set [2] and in data set [3] were 0%, 0% and 99%, respectively.
As for `CCc1cc(C(=O)OC)cc(Cl)c1OC(=O)CCCc1ccc(NC(=O)c2ccc(C)nc2-c2ccc(C(F)(F)F)cc2)c(C(=O)N(C)C)c1` [Compound 1-73, 3-chloro-4-[4-(3-dimethylcarbamoyl-4-{[6-methyl-2-(4-trifluoromethylphenyl)pyridine-3-carbonyl]amino}phenyl)butyryloxy]-5-ethylbenzoic acid methyl ester], the remaining at 10 min in data set [1] worked out at 10%; in data set [2], 78%; in data set [3] it was 101%. Also, the remaining at 1 h in data set [1] was found to be 0%; in data set [2], 19%; in data set [3], 101%.
As for `CCc1cc(C(=O)OC)ccc1OC(=O)CCCc1ccc(NC(=O)c2ccccc2-c2ccc(C(F)(F)F)cc2)c(C(=O)N(C)C)c1` [Compound 1-67, 4-[4-(3-dimethylcarbamoyl-4-{(4'-trifluoromethylbiphenyl-2-carbonyl)amino}phenyl)butyryloxy]-3-ethylbenzoic acid methyl ester], the remaining at 10 min came out at 3% in data set [1], 77% in data set [2] and 103% in data set [3]. For the same compound, the remaining at 1 h in data set [1] came out at 0%; in data set [2], 17%; in data set [3], 105%.
Consider `COC(=O)c1ccc(OC(=O)CCc2ccc(NC(=O)c3ccccc3-c3ccc(C(F)(F)F)cc3)c(C(=O)N(C)C)c2)cc1` [Compound 1-27, 4-(3-{3-dimethylcarbamoyl-4-[(4'-trifluoromethylbiphenyl-2-carbonyl)amino]phenyl}propionyloxy)benzoic acid methyl ester], for which the results for the remaining at 10 min in data set [1], in data set [2] and in data set [3] were 0%, 10% and 97%, respectively. Further, the remaining at 1 h in data set [1] came to 0%; in data set [2] it was 0%; in data set [3], 102%.
As for `COC(=O)c1cc(OC)c(OC(=O)CCCc2ccc(NC(=O)c3ccc(C)nc3-c3ccc(C(F)(F)F)cc3)c(C(=O)N(C)C)c2)c(OC)c1` [Compound 1-39, 4-[4-(3-dimethylcarbamoyl-4-{[6-methyl-2-(4-trifluoromethylphenyl)pyridine-3-carbonyl]amino}phenyl)butyryloxy]-3,5-dimethoxybenzoic acid methyl ester], the figures for the remaining at 10 min in data set [1], in data set [2] and in data set [3] were 5%, 0% and 98%, respectively. The remaining at 1 h amounted to 2% in data set [1], 0% in data set [2] and 104% in data set [3].
For the compound `CCOC(=O)c1cc(C)c(OC(=O)CCCc2ccc(NC(=O)c3ccc(C)nc3-c3ccc(C(F)(F)F)cc3)c(C(=O)N(C)C)c2)c(Cl)c1` [Compound 1-112, 3-chloro-4-[4-(3-dimethylcarbamoyl-4-{[6-methyl-2-(4-trifluoromethylphenyl)pyridine-3-carbonyl]amino}phenyl)butyryloxy]-5-methylbenzoic acid ethyl ester], the remaining at 10 min in data set [1] turned out to be 27%; in data set [2], 48%; in data set [3], 99%. Besides, the remaining at 1 h in data set [1] was 8%; in data set [2] it was 0%; in data set [3] it was 100%.
Consider `COc1cc(C(=O)OC(C)C)cc(OC)c1OC(=O)CCCc1ccc(NC(=O)c2ccc(C)nc2-c2ccc(C(F)(F)F)cc2)c(C(=O)N(C)C)c1` [Compound 1-44, 4-[4-(3-dimethylcarbamoyl-4-{[6-methyl-2-(4-trifluoromethylphenyl)pyridine-3-carbonyl]amino}phenyl)butyryloxy]-3,5-dimethoxybenzoic acid isopropyl ester], for which the figures for the remaining at 10 min in data set [1], in data set [2] and in data set [3] were 12%, 13% and 99%, respectively. The remaining at 1 h in data set [1] was 4%; in data set [2], 0%; in data set [3], 100%.
`Cc1cccc(COC(=O)c2ccc(OC(=O)CCCc3ccc(NC(=O)c4ccc(C)nc4-c4ccc(C(F)(F)F)cc4)c(C(=O)N(C)C)c3)cc2)n1` [Compound 1-100, 4-[4-(3-dimethylcarbamoyl-4-([6-methyl-2-(4-trifluoromethylphenyl)pyridine-3-carbonyl]amino}phenyl)butyryloxy]benzoic acid 6-methylpyridin-2-ylmethyl ester]: the remaining at 10 min in data set [1] was found to be 0%; in data set [2], 12%; in data set [3], 102%. Further, the remaining at 1 h in data set [1] is 0%; in data set [2], 0%; in data set [3] it was 102%.
Take `COC(=O)c1ccc(OC(=O)CCCc2ccc(NC(=O)c3ccccc3-c3ccc(C(F)(F)F)cc3)c(C(=O)N(C)C)c2)cc1C(F)(F)F` [Compound 1-21, 4-(4-{3-dimethylcarbamoyl-4-[(4'-trifluoromethylbiphenyl-2-carbonyl)amino]phenyl}butyryloxy)-2-trifluoromethylbenzoic acid methyl ester]: the remaining at 10 min in data set [1] amounted to 0%; in data set [2] it was 0%; in data set [3] it was 104%. Also, the remaining at 1 h in data set [1] came out at 0%; in data set [2] it was 0%; in data set [3], 103%.
For `CCCOC(=O)c1ccc(OC(=O)CCCc2ccc(NC(=O)c3ccccc3-c3ccc(C(F)(F)F)cc3)c(C(=O)N(C)C)c2)cc1` [Compound 1-8, 4-(4-{3-dimethylcarbamoyl-4-[(4'-trifluoromethylbiphenyl-2-carbonyl)amino]phenyl}butyryloxy) benzoic acid propyl ester], the remaining at 10 min in data set [1] was found to be 0%; in data set [2], 71%; in data set [3], 99%. Moreover, the remaining at 1 h in data set [1] was determined as 0%; in data set [2] it was 12%; in data set [3] it was 98%.
Take `CN(C)C(=O)c1cc(CCCC(=O)Oc2ccc(C(=O)OCCN3CCCC3=O)cc2)ccc1NC(=O)c1ccccc1-c1ccc(C(F)(F)F)cc1` [Compound 1-91, 4-[4-(3-dimethylcarbamoyl-4-{(4'-trifluoromethylbiphenyl-2-carbonyl)amino}phenyl)butyryloxy]benzoic acid 2-(2-oxopyrrolidin-1-yl)ethyl ester]: the remaining at 10 min in data set [1] amounted to 0%; in data set [2], 31%; in data set [3], 100%. In addition, the remaining at 1 h in data set [1] is 0%; in data set [2], 0%; in data set [3], 105%.
Regarding `COC(=O)COC(=O)c1ccc(OC(=O)CCCc2ccc(NC(=O)c3ccccc3-c3ccc(C(F)(F)F)cc3)c(C(=O)N(C)C)c2)cc1` [Compound 1-86, 4-[4-(3-dimethylcarbamoyl-4-{(4'-trifluoromethylbiphenyl-2-carbonyl)amino}phenyl)butyryloxy]benzoic acid methoxycarbonylmethyl ester], the figures for the remaining at 10 min in data set [1], in data set [2] and in data set [3] were 0%, 40% and 99%, respectively. The remaining at 1 h is 0% in data set [1], 0% in data set [2] and 103% in data set [3].
